Reference: US12077503B2, “Substituted cyclic amides and their use as herbicides” (FMC CORPORATION, priority 2015, dated 2024)

How the values were obtained:
Format in all cases: in vivo
[1] = system: giant foxtail (Setaria faberii); assay: Test A postemergence; details: Setaria faberi, post-emergence, 240 h
In short: (§1)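 Seeds sprayed preemergence with a directed soil spray, or plants at 2 to 10 cm height and one- to two-leaf stage sprayed postemergence, with test chemicals in a non-phytotoxic solvent mixture containing surfactant, in loam soil–sand blend. Injury rated visually against untreated controls after about 10 d in greenhouse, 0 (no effect) to 100 (complete control).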

[2] = system: barnyardgrass (Echinochloa crus-galli); assay: Test A postemergence; details: Echinochloa crus-galli, post-emergence, 240 h
In short: as §1

[3] = system: Galium (catchweed bedstraw, Galium aparine); assay: Test A postemergence; details: Galium, post-emergence, 240 h
In short: as §1

[4] = system: wheat (Triticum aestivum); assay: Test A postemergence; details: Triticum aestivum, post-emergence, 240 h, 125 g ai/ha, postemergence, visual injury vs untreated controls after approx. 10 d; 0 = no effect, 100 = complete control; read-out: Wheat plant response rating (0 to 100 scale)
In short: as §1

[5] = system: pigweed (Amaranthus retroflexus); assay: Test A postemergence; details: Amaranthus retroflexus, post-emergence, 240 h, 125 g ai/ha, postemergence, visual injury vs untreated controls after approx. 10 d; 0 = no effect, 100 = complete control; read-out: Pigweed plant response rating (0 to 100 scale)
In short: as §1

[6] = system: ragweed (common ragweed, Ambrosia elatior); assay: Test A postemergence; details: Ambrosia artemisiifolia, post-emergence, 240 h, 125 g ai/ha, postemergence, visual injury vs untreated controls after approx. 10 d; 0 = no effect, 100 = complete control; read-out: Ragweed plant response rating (0 to 100 scale)
In short: as §1

[7] = system: ryegrass, Italian (Italian ryegrass, Lolium multiflorum); assay: Test A postemergence; details: Lolium multiflorum, post-emergence, 240 h, 125 g ai/ha, postemergence, visual injury vs untreated controls after approx. 10 d; 0 = no effect, 100 = complete control; read-out: Ryegrass, Italian plant response rating (0 to 100 scale)
In short: as §1

[8] = system: Kochia (Kochia scoparia); assay: Test A postemergence; details: Bassia scoparia, post-emergence, 240 h
In short: as §1

[9] = system: corn (Zea mays); assay: Test A postemergence; details: Zea mays, post-emergence, 240 h
In short: as §1

[10] = system: blackgrass (Alopecurus myosuroides); assay: Test A postemergence; details: Alopecurus myosuroides, post-emergence, 240 h
In short: as §1

[11] = system: giant foxtail (Setaria faberii); assay: Test A preemergence; details: Setaria faberi, pre-emergence, 240 h, 0 to 100 scale where 0 is no effect and 100 is complete control, read-out: Foxtail, Giant plant response rating
In short: as §1

[12] = system: barnyardgrass (Echinochloa crus-galli); assay: Test A preemergence; details: Echinochloa crus-galli, pre-emergence, 240 h, 0 to 100 scale where 0 is no effect and 100 is complete control, read-out: Barnyardgrass plant response rating
In short: as §1

[13] = system: pigweed (Amaranthus retroflexus); assay: Test A preemergence; details: Amaranthus retroflexus, pre-emergence, 240 h, 0 to 100 scale where 0 is no effect and 100 is complete control, read-out: Pigweed plant response rating
[14] = system: ragweed (common ragweed, Ambrosia elatior); assay: Test A preemergence; details: Ambrosia artemisiifolia, pre-emergence, 240 h, 0 to 100 scale where 0 is no effect and 100 is complete control, read-out: Ragweed plant response rating
In short: as §1

[15] = system: ryegrass, Italian (Italian ryegrass, Lolium multiflorum); assay: Test A preemergence; details: Lolium multiflorum, pre-emergence, 240 h, 0 to 100 scale where 0 is no effect and 100 is complete control, read-out: Ryegrass, Italian plant response rating
In short: as §1

[16] = system: Kochia (Kochia scoparia); assay: Test A preemergence; details: Bassia scoparia, pre-emergence, 240 h, 0 to 100 scale where 0 is no effect and 100 is complete control, read-out: Kochia plant response rating
In short: as §1

[17] = system: barnyardgrass (Echinochloa crus-galli); assay: Test B flooded paddy test; details: Echinochloa crus-galli, 250 g ai/ha, Flood; 0 to 100 scale where 0 is no effect and 100 is complete control; read-out: Barnyardgrass plant response rating
In short: (§2)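 Greenhouse paddy pots with 2-leaf stage plants received compound by direct addition to floodwater 3 cm deep, kept at that level. Scored visually at 13–15 d versus controls (0 no effect; 100 complete control).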

[18] = system: sedge, umbrella (small-flower umbrella sedge, Cyperus difformis); assay: Test B flooded paddy test; details: Cyperus difformis, 250 g ai/ha, Flood; 0 to 100 scale where 0 is no effect and 100 is complete control; read-out: Sedge, Umbrella plant response rating
In short: as §2

[19] = system: rice (Oryra sativa); assay: Test B flooded paddy test; details: Oryza sativa, 250 g ai/ha, Flood; 0 to 100 scale where 0 is no effect and 100 is complete control; read-out: Rice plant response rating
In short: as §2

[20] = system: ducksalad (Heteranthera limosa); assay: Test B flooded paddy test; details: Heteranthera limosa, 250 g ai/ha, Flood; 0 to 100 scale where 0 is no effect and 100 is complete control; read-out: Ducksalad plant response rating
In short: as §2

[21] = 125 g ai/ha, preemergence, visual injury rating, approximately 10 d

## COc1ccc(C(F)(F)F)cc1[C@H]1CN(C)C(=O)[C@@H]1C(=O)Nc1ccccc1SC [Compound 1185]
[1]; 125 g ai/ha, postemergence, visual injury vs untreated controls after approx. 10 d, 0 = no effect, 100 = complete control, read-out: Foxtail, Giant plant response rating (0 to 100 scale)
  pest or weed control at 125 g/ha: 60%
[1]; Postemergence, 31 g ai/ha, visual injury after approx. 10 d, 0 to 100 scale, 0 no effect, 100 complete control, read-out: Plant response rating, Foxtail, Giant
  pest or weed control at 31 g/ha: 30%
[2]; 125 g ai/ha, postemergence, visual injury vs untreated controls after approx. 10 d, 0 = no effect, 100 = complete control, read-out: Barnyardgrass plant response rating (0 to 100 scale)
  pest or weed control at 125 g/ha: 50%
[2]; Postemergence, 31 g ai/ha, visual injury after approx. 10 d, 0 to 100 scale, 0 no effect, 100 complete control, read-out: Plant response rating, Barnyardgrass
  pest or weed control at 31 g/ha: 20%
[3]; 125 g ai/ha, postemergence, visual injury vs untreated controls after approx. 10 d, 0 = no effect, 100 = complete control, read-out: Galium plant response rating (0 to 100 scale)
  pest or weed control at 125 g/ha: 0%
[3]; Postemergence, 31 g ai/ha, visual injury after approx. 10 d, 0 to 100 scale, 0 no effect, 100 complete control, read-out: Plant response rating, Galium
  pest or weed control at 31 g/ha: 0%
[4]
  plant injury at 125 g/ha: 40%
[5]
  pest or weed control at 125 g/ha: 0%
[6]
  pest or weed control at 125 g/ha: 0%
[7]
  pest or weed control at 125 g/ha: 20%
[8]; 125 g ai/ha, postemergence, visual injury vs untreated controls after approx. 10 d, 0 = no effect, 100 = complete control, read-out: Kochia plant response rating (0 to 100 scale)
  pest or weed control at 125 g/ha: 0%
[8]; Postemergence, 31 g ai/ha, visual injury after approx. 10 d, 0 to 100 scale, 0 no effect, 100 complete control, read-out: Plant response rating, Kochia
  pest or weed control at 31 g/ha: 0%
[9]; 125 g ai/ha, postemergence, visual injury vs untreated controls after approx. 10 d, 0 = no effect, 100 = complete control, read-out: Corn plant response rating (0 to 100 scale)
  plant injury at 125 g/ha: 20%
[9]; Postemergence, 31 g ai/ha, visual injury after approx. 10 d, 0 to 100 scale, 0 no effect, 100 complete control
  Corn plant response rating (crop injury, 0 = no effect, 100 = complete kill) at 31 g/ha: 0%
[10]; 125 g ai/ha, postemergence, visual injury vs untreated controls after approx. 10 d, 0 = no effect, 100 = complete control, read-out: Blackgrass plant response rating (0 to 100 scale)
  pest or weed control at 125 g/ha: 50%
[10]; Postemergence, 31 g ai/ha, visual injury after approx. 10 d, 0 to 100 scale, 0 no effect, 100 complete control, read-out: Plant response rating, Blackgrass
  pest or weed control at 31 g/ha: 0%
[11]; 31 g ai/ha, Preemergence
  pest or weed control at 31 g/ha: 50%
[11]; [21]
  pest or weed control at 125 g/ha: 90%
[12]; 31 g ai/ha, Preemergence
  pest or weed control at 31 g/ha: 70%
[12]; [21]
  pest or weed control at 125 g/ha: 100%
[13]; 31 g ai/ha, Preemergence
  pest or weed control at 31 g/ha: 0%
[13]; [21]
  pest or weed control at 125 g/ha: 0%
[14]; 31 g ai/ha, Preemergence
  pest or weed control at 31 g/ha: 0%
[14]; [21]
  pest or weed control at 125 g/ha: 0%
[15]; 31 g ai/ha, Preemergence
  pest or weed control at 31 g/ha: 0%
[15]; [21]
  pest or weed control at 125 g/ha: 60%
[16]; 31 g ai/ha, Preemergence
  pest or weed control at 31 g/ha: 0%
[16]; [21]
  pest or weed control at 125 g/ha: 0%
[17]
  pest or weed control at 250 g/ha: 60%
[18]
  pest or weed control at 250 g/ha: 0%
[19]
  pest or weed control at 250 g/ha: 0%
[20]
  pest or weed control at 250 g/ha: 50%
